Assay results taken from patent US20100267561A1, “HERBICIDAL PYRIDAZINONE DERIVATIVES” (priority 2007, published 2010).

What was measured:
Type in all cases: in vivo
[1] = system: ducksalad (Heteranthera limosa); test: Test B flooded paddy test plant response; conditions: Heteranthera limosa, read-out: Plant response rating, Ducksalad
How it was run: (§1)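 Paddy-water application to 2-leaf plants in pots held under 3 cm of flooding; response is a 0–100 visual control rating against controls after 13 to 15 days, and a dash marks a missing result.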

rice (Oryza sativa) = test: Test B flooded paddy test plant response; conditions: Oryza sativa, read-out: Plant response rating, Rice
How it was run: as §1

[2] = system: umbrella sedge (Cyperus difformis); test: Test B flooded paddy test plant response; conditions: Cyperus difformis, read-out: Plant response rating, Sedge, Umbrella
How it was run: as §1

[3] = system: winter barley (Hordeum vulgare); test: Test C pre-/postemergence plant response
Description: (§2) Seeds of plant species selected from annual bluegrass (Poa annua), blackgrass (Alopecurus myosuroides), canola (Brassica rapa), downy bromegrass (Bromus tectorum), green foxtail (Setaria viridis), Italian ryegrass (Lolium multiflorum), canarygrass (Phalaris minor), pigweed (Amaranthus retroflexus), spring barley (Hordeum vulgare), spring wheat (Triticum aestivum), wild mustard (Sinapis arvensis), wild oat (Avena fatua), windgrass (Apera spica-venti), winter barley (Hordeum vulgare), and winter wheat (Triticum aestivum) were planted and treated preemergence with test chemicals formulated in a non-phytotoxic solvent mixture which included a surfactant. At the same time, plants selected from these crop and weed species were treated with postemergence applications of some of the test chemicals formulated in the same manner. Plants ranged in height from 2 to 18 cm (1- to 4-leaf stage) for postemergence treatments.
(§3) Treated plants and controls were maintained in a controlled growth environment for 15 to 25 days after which time all species were compared to controls and visually evaluated. Plant response ratings, summarized in Table C, are based on a scale of 0 to 100 where 0 is no effect and 100 is complete control. A dash (-) response means no test result.

[4] = system: spring wheat (Triticum aestivum); test: Test C pre-/postemergence plant response
Description: as §2, §3

[5] = system: wild mustard (Sinapis arvensis); test: Test C pre-/postemergence plant response
Description: as §2, §3

[6] = system: downy bromegrass (Bromus tectorum); test: Test C pre-/postemergence plant response
Description: as §2, §3

[7] = system: winter wheat (Triticum aestivum); test: Test C pre-/postemergence plant response
Description: as §2, §3

[8] = system: annual bluegrass (Poa annua); test: Test C pre-/postemergence plant response
Description: as §2, §3

[9] = system: blackgrass (Alopecurus myosuroides); test: Test C pre-/postemergence plant response
Description: as §2, §3

[10] = system: green foxtail (Setaria viridis); test: Test C pre-/postemergence plant response
Description: as §2, §3

[11] = system: canarygrass (Phalaris minor); test: Test C pre-/postemergence plant response
Description: as §2, §3

[12] = system: pigweed (Amaranthus retroflexus); test: Test C pre-/postemergence plant response
Description: as §2, §3

[13] = system: Italian ryegrass (Lolium multiflorum); test: Test C pre-/postemergence plant response
Description: as §2, §3

wild oat (Avena fatua) = test: Test C pre-/postemergence plant response
Description: as §2, §3

[14] = system: spring barley (Hordeum vulgare); test: Test C pre-/postemergence plant response
Description: as §2, §3

[15] = system: windgrass (Apera spica-venti); test: Test C pre-/postemergence plant response
Description: as §2, §3

[16] = Flood (flooded paddy test), 62 g ai/ha, scale 0 to 100, 0 no effect, 100 complete control
[17] = Flood (flooded paddy test), 125 g ai/ha, scale 0 to 100, 0 no effect, 100 complete control
[18] = Flood (flooded paddy test), 250 g ai/ha, scale 0 to 100, 0 no effect, 100 complete control
[19] = Flood, 31 g ai/ha, scale 0 to 100
[20] = Postemergence, 8 g ai/ha, scale 0 to 100, 0 no effect, 100 complete control
[21] = Postemergence, 16 g ai/ha, scale 0 to 100, 0 no effect, 100 complete control
[22] = Postemergence, 31 g ai/ha, scale 0 to 100, 0 no effect, 100 complete control
[23] = Postemergence, 62 g ai/ha, scale 0 to 100, 0 no effect, 100 complete control
[24] = Preemergence, 8 g ai/ha, scale 0 to 100 (0 no effect, 100 complete control)
[25] = Preemergence, 16 g ai/ha, scale 0 to 100 (0 no effect, 100 complete control)
[26] = Preemergence, 31 g ai/ha, scale 0 to 100 (0 no effect, 100 complete control)
[27] = Preemergence, 62 g ai/ha, scale 0 to 100, 0 no effect, 100 complete control

SMILES: CCc1cc(-c2ccc(C(F)(F)F)cc2)nn1-c1c(O)cnn(C)c1=O [Compound 11, 4-[5-ethyl-3-[4-(trifluoromethyl)phenyl]-1H-pyrazol-1-yl]-5-hydroxy-2-methyl-3(2H)-pyridazinone]
- pest or weed control at 62 g/ha [1, 16]: 0%
- pest or weed control at 125 g/ha [1, 17]: 0%
- pest or weed control at 250 g/ha [1, 18]: 40%
- pest or weed control at 31 g/ha [1, 19]: 0%
- plant injury at 62 g/ha (rice (Oryza sativa); [16]): 30%
- plant injury at 125 g/ha (rice (Oryza sativa); [17]): 60%
- plant injury at 250 g/ha (rice (Oryza sativa); [18]): 70%
- plant injury at 31 g/ha (rice (Oryza sativa); [19]): 0%
- pest or weed control at 62 g/ha [2, 16]: 30%
- pest or weed control at 125 g/ha [2, 17]: 40%
- pest or weed control at 250 g/ha [2, 18]: 40%
- pest or weed control at 31 g/ha [2, 19]: 30%
- Plant response rating, Barley, Winter [3, 20]: 60
- Plant response rating, Barley, Winter [3, 21]: 70
- Plant response rating, Barley, Winter [3, 22]: 95
- Plant response rating, Barley, Winter [3, 23]: 100
- Plant response rating, Barley, Winter [3, 24]: 20
- Plant response rating, Barley, Winter [3, 25]: 40
- Plant response rating, Barley, Winter [3, 26]: 75
- Plant response rating, Barley, Winter [3, 27]: 95
- Plant response rating, Wheat, Spring [4, 20]: 65
- Plant response rating, Wheat, Spring [4, 21]: 90
- Plant response rating, Wheat, Spring [4, 22]: 98
- Plant response rating, Wheat, Spring [4, 23]: 98
- Plant response rating, Wheat, Spring [4, 24]: 50
- Plant response rating, Wheat, Spring [4, 25]: 60
- Plant response rating, Wheat, Spring [4, 26]: 75
- Plant response rating, Wheat, Spring [4, 27]: 100
- Plant response rating, Mustard, Wild [5, 20]: 0
- Plant response rating, Mustard, Wild [5, 21]: 25
- Plant response rating, Mustard, Wild [5, 22]: 25
- Plant response rating, Mustard, Wild [5, 23]: 40
- Plant response rating, Mustard, Wild [5, 24]: 0
- Plant response rating, Mustard, Wild [5, 25]: 0
- Plant response rating, Mustard, Wild [5, 26]: 0
- Plant response rating, Mustard, Wild [5, 27]: 0
- Plant response rating, Bromegrass, Downy [6, 20]: 50
- Plant response rating, Bromegrass, Downy [6, 21]: 80
- Plant response rating, Bromegrass, Downy [6, 22]: 98
- Plant response rating, Bromegrass, Downy [6, 23]: 98
- Plant response rating, Bromegrass, Downy [6, 24]: 35
- Plant response rating, Bromegrass, Downy [6, 25]: 65
- Plant response rating, Bromegrass, Downy [6, 26]: 70
- Plant response rating, Bromegrass, Downy [6, 27]: 100
- Plant response rating, Wheat, Winter [7, 20]: 90
- Plant response rating, Wheat, Winter [7, 21]: 100
- Plant response rating, Wheat, Winter [7, 22]: 100
- Plant response rating, Wheat, Winter [7, 23]: 100
- Plant response rating, Wheat, Winter [7, 24]: 20
- Plant response rating, Wheat, Winter [7, 25]: 40
- Plant response rating, Wheat, Winter [7, 26]: 100
- Plant response rating, Wheat, Winter [7, 27]: 100
- Plant response rating, Bluegrass [8, 20]: 0
- Plant response rating, Bluegrass [8, 21]: 15
- Plant response rating, Bluegrass [8, 22]: 15
- Plant response rating, Bluegrass [8, 23]: 20
- Plant response rating, Bluegrass [8, 24]: 0
- Plant response rating, Bluegrass [8, 25]: 20
- Plant response rating, Bluegrass [8, 27]: 30
- Plant response rating, Blackgrass [9, 20]: 100
- Plant response rating, Blackgrass [9, 21]: 100
- Plant response rating, Blackgrass [9, 22]: 100
- Plant response rating, Blackgrass [9, 23]: 100
- Plant response rating, Blackgrass [9, 24]: 85
- Plant response rating, Blackgrass [9, 25]: 90
- Plant response rating, Blackgrass [9, 26]: 90
- Plant response rating, Blackgrass [9, 27]: 100
- Plant response rating, Foxtail, Green [10, 20]: 95
- Plant response rating, Foxtail, Green [10, 21]: 98
- Plant response rating, Foxtail, Green [10, 22]: 100
- Plant response rating, Foxtail, Green [10, 23]: 100
- Plant response rating, Foxtail, Green [10, 24]: 100
- Plant response rating, Foxtail, Green [10, 25]: 100
- Plant response rating, Foxtail, Green [10, 26]: 100
- Plant response rating, Foxtail, Green [10, 27]: 100
- Plant response rating, Canarygrass [11, 20]: 65
- Plant response rating, Canarygrass [11, 21]: 100
- Plant response rating, Canarygrass [11, 22]: 100
- Plant response rating, Canarygrass [11, 23]: 100
- Plant response rating, Canarygrass [11, 24]: 15
- Plant response rating, Canarygrass [11, 25]: 75
- Plant response rating, Canarygrass [11, 26]: 98
- Plant response rating, Canarygrass [11, 27]: 100
- Plant response rating, Pigweed [12, 20]: 0
- Plant response rating, Pigweed [12, 21]: 10
- Plant response rating, Pigweed [12, 22]: 10
- Plant response rating, Pigweed [12, 23]: 20
- Plant response rating, Pigweed [12, 24]: 0
- Plant response rating, Pigweed [12, 25]: 0
- Plant response rating, Pigweed [12, 26]: 0
- Plant response rating, Pigweed [12, 27]: 15
- Plant response rating, Ryegrass, Italian [13, 20]: 98
- Plant response rating, Ryegrass, Italian [13, 21]: 98
- Plant response rating, Ryegrass, Italian [13, 22]: 100
- Plant response rating, Ryegrass, Italian [13, 23]: 100
- Plant response rating, Ryegrass, Italian [13, 24]: 85
- Plant response rating, Ryegrass, Italian [13, 25]: 98
- Plant response rating, Ryegrass, Italian [13, 26]: 100
- Plant response rating, Ryegrass, Italian [13, 27]: 100
- Plant response rating, Oat, Wild (wild oat (Avena fatua); [20]): 100
- Plant response rating, Oat, Wild (wild oat (Avena fatua); [21]): 100
- Plant response rating, Oat, Wild (wild oat (Avena fatua); [22]): 100
- Plant response rating, Oat, Wild (wild oat (Avena fatua); [23]): 100
- Plant response rating, Oat, Wild (wild oat (Avena fatua); [24]): 98
- Plant response rating, Oat, Wild (wild oat (Avena fatua); [25]): 98
- Plant response rating, Oat, Wild (wild oat (Avena fatua); [26]): 98
- Plant response rating, Oat, Wild (wild oat (Avena fatua); [27]): 100
- Plant response rating, Barley, Spring [14, 20]: 80
- Plant response rating, Barley, Spring [14, 21]: 95
- Plant response rating, Barley, Spring [14, 22]: 95
- Plant response rating, Barley, Spring [14, 23]: 98
- Plant response rating, Barley, Spring [14, 24]: 20
- Plant response rating, Barley, Spring [14, 25]: 30
- Plant response rating, Barley, Spring [14, 26]: 70
- Plant response rating, Barley, Spring [14, 27]: 100
- Plant response rating, Windgrass [15, 20]: 95
- Plant response rating, Windgrass [15, 21]: 95
- Plant response rating, Windgrass [15, 22]: 95
- Plant response rating, Windgrass [15, 23]: 95
- Plant response rating, Windgrass [15, 24]: 100
- Plant response rating, Windgrass [15, 25]: 100
- Plant response rating, Windgrass [15, 26]: 100
- Plant response rating, Windgrass [15, 27]: 100
